The record followed here is patent US6897316B2, “Substituted 2-phenyl-4-quinolone-3-carboxylic acid compounds and their use as antitumor agents” (China Medical University, priority 2003, dated 2005).

In test [1] the test system is Renal cancer (CAKI) cell line. Kind of test: Activity against HTCL replication, CAKI. Particulars: mean ED50. It is filed as cell-based, human. How it is done: (§1) Compounds were assayed for in vitro cytotoxicity in a panel of human tumor cell lines at the School of Pharmacy, University of North Carolina at Chapel Hill, according to procedures described previously [Lee, K. H., Lin, Y. M., Wu, T. S., Zhang, D. C., Yamagishi, T., Hayashi, T., Hall, I. H., Chang, J. J., Wu, R. Y., Yang, T. H. The cytotoxic principles of Prunella vulgaris, Psychotria serpens, and Hyptis capitata: Ursolic acid and related derivatives. Planta Med. 1988, 54, 308-11; Boyd, M. R. Status of the National Cancer Institute preclinical antitumor drug discovery screen: implications for selection of new agents for clinical trial. Devita, V. T., Jr. Hellman, S., Rosenberg, S. A., Eds, J. B. Cancer: Principles and Practice of Oncology Update, 1989, 3: pp1-12, Lippincoft: Philadephia; Monks, A., Scudiero, D., Skehan, P., Shoemaker, R., Paull, K., Vistica, D., Hose, C., Langley, J., Cronise, P., Vaigro-Wolff, A., Gray-Goodrich, M., Campbell, H., Mayo, J., Boyd, M. Feasibility of a high-flux anticancer drug screen using a diverse panel of cultured human tumor cell lines. J. Natl. Cancer Inst. 1991, 83, 757-66.] […]

Test [2] relates to Vincristine-resistant epidermoid carcinoma of the nasopharynx (KB-VIN) cell line. As to the kind of experiment: Activity against HTCL replication, KB-VIN. It is filed as cell-based, human. Particulars: mean ED50. How it is done:
as §1

Each structure is given as a SMILES string. Converted amounts (≈) assume the structure as drawn.

Take `COc1ccc2[nH]c(-c3cccc(F)c3)c(C(=O)O)c(=O)c2c1` [IX-8, 3′-Fluoro-6-methoxy-2-phenyl-4-quinolone-3-carboxylic acid]: the “ED50 CAKI” value in test [1] stood at 10.0 µg/mL (≈ 31.9 µM). For the same molecule, in test [2], the “ED50 KB-VIN” value worked out at 0.13 µg/mL (≈ 0.415 µM).
